Nine compounds from ChEMBL document CHEMBL1201862, “PubChem BioAssay data set” (2004) can be followed below.

Molecules are shown by their SMILES.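 Exposure lasted 48 hours, with cells grown in 96-well plates and compounds tested at five concentrations. GI50 is the concentration that inhibits growth by half.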 The source made the active and inactive calls. Cut-off read from the data, not from the text of the source: active = GI50 up to about 1.1 µM and inactive = higher.

Some test systems named below: A498; CAKI-1; HCC 2998; HOP-62; IGROV-1; Malme-3M; NCI-H460; OVCAR-3; OVCAR-4; OVCAR-5; SF-295; SK-MEL-5; SN12C; SNB-19; TK-10; UO-31; HL-60; SR.
Holding throughout (test): growth of human tumour cells (NCI), 48 h

Turning to `O=C(NCCCCCCNC(=O)OCCSCCn1cc(C(=O)NC(=O)OCc2ccccc2)c(=O)[nH]c1=O)OCCSCCn1cc(C(=O)NC(=O)OCc2ccccc2)c(=O)[nH]c1=O`, the GI50 in the assay on A498, in the assay with CAKI-1, in the assay on HCC 2998, with HOP-62, with IGROV-1 and in the assay on Malme-3M was > 100 µM (inactive) in each case. The GI50 in the assay on NCI-H460, in the assay on OVCAR-3, with OVCAR-4, in the assay on OVCAR-5, in the assay on SF-295 and in the assay on SK-MEL-5 was > 100 µM (inactive) in each case. Also, the GI50 in the assay on SN12C was > 100 µM (inactive); with SNB-19, > 100 µM (inactive); in the assay on TK-10 it was > 100 µM (inactive); in the assay with UO-31 it was 55.8 µM (inactive).
As for `COc1ccc2nc3ccccc3c(NCCCCCCN(C)CCCl)c2c1`, the GI50 is 1.16 µM (inactive) with A498; 0.314 µM (active) in the assay with CAKI-1; 0.705 µM (active) in the assay on HCC 2998; 0.0312 µM (active) in the assay with HL-60; 1.05 µM (active) in the assay with HOP-62; 0.163 µM (active) in the assay on IGROV-1. Further, the GI50 was 0.82 µM (active) in the assay on Malme-3M; 0.0569 µM (active) in the assay on NCI-H460; 1.19 µM (inactive) in the assay on OVCAR-3; 1.09 µM (active) in the assay on OVCAR-4; 1.11 µM (active) with OVCAR-5; 1 µM (active) in the assay on SF-295. The GI50 with SK-MEL-5 is 0.918 µM (active); in the assay with SN12C it was 0.0689 µM (active); with SNB-19, 1.17 µM (inactive); with TK-10, 1.32 µM (inactive); in the assay with UO-31 it was 1.36 µM (inactive).
As for `COc1ccc2c(c1)Oc1cc(O)ccc1[C@H]2c1ccccc1C(=O)NC(C)c1ccccc1` (stereo not given in full), the GI50 is 16.9 µM (inactive) with A498; 17.3 µM (inactive) with CAKI-1; 12.8 µM (inactive) with HCC 2998; 14.4 µM (inactive) in the assay with HL-60; 18.8 µM (inactive) with HOP-62; 15.1 µM (inactive) in the assay with IGROV-1. Also, the GI50 in the assay on Malme-3M is 20.4 µM (inactive); in the assay on NCI-H460, 13.3 µM (inactive); with OVCAR-3, 12.3 µM (inactive); with OVCAR-5, 15.3 µM (inactive); with SF-295 it was 12.4 µM (inactive); with SK-MEL-5 it was 15.1 µM (inactive). Moreover, the GI50 was 16.3 µM (inactive) in the assay on SN12C, 17.6 µM (inactive) in the assay on SNB-19, 24.2 µM (inactive) in the assay on TK-10 and 10.9 µM (inactive) in the assay with UO-31.
Turning to `Cc1ccc(-n2nc(C(OC3OC(CO)C(O)C(O)C3O)C(O)CO)c3nc4cc(C)c(C)cc4nc32)cc1` (stereo not given), the GI50 in the assay with A498, in the assay with HCC 2998, in the assay with HOP-62, in the assay on Malme-3M, with NCI-H460 and in the assay with OVCAR-3 was > 100 µM (inactive) in each case. In addition, the GI50 is 99.1 µM (inactive) in the assay with OVCAR-4; > 100 µM (inactive) with OVCAR-5; > 100 µM (inactive) in the assay with SF-295; > 100 µM (inactive) in the assay with SN12C; > 100 µM (inactive) in the assay with SNB-19; > 100 µM (inactive) in the assay with TK-10. The GI50 with UO-31 was > 100 µM (inactive).
With `Cc1ccc(Nc2nc3c(s2)C(=O)c2ccccc2C3=O)c(C)c1`, the GI50 in the assay with A498 is 34 µM (inactive); in the assay on CAKI-1, 14.2 µM (inactive); in the assay on HCC 2998 it was 17.2 µM (inactive); with HL-60, 2.19 µM (inactive); in the assay with HOP-62, 16.5 µM (inactive); in the assay with IGROV-1, 16.4 µM (inactive). For the same compound, the GI50 was 13.6 µM (inactive) in the assay on Malme-3M; 22.2 µM (inactive) in the assay on NCI-H460; 13.7 µM (inactive) in the assay on OVCAR-3; 12.2 µM (inactive) in the assay on OVCAR-4; 19.8 µM (inactive) in the assay on OVCAR-5; 15.3 µM (inactive) in the assay on SF-295. The GI50 in the assay on SK-MEL-5 was 13.1 µM (inactive); in the assay on SN12C it was 16.9 µM (inactive); in the assay with SNB-19 it was 14.6 µM (inactive); with TK-10, 21.8 µM (inactive); in the assay on UO-31, 14.3 µM (inactive).
As for `CCOC(=O)C1CC(=O)C=C2CCCCC21` (stereo not given), the GI50 in the assay on A498, in the assay on CAKI-1, in the assay on HCC 2998, with HL-60, in the assay on HOP-62 and in the assay with IGROV-1 was > 100 µM (inactive) throughout. The GI50 with Malme-3M, in the assay with NCI-H460, in the assay with OVCAR-3, with OVCAR-4, in the assay with OVCAR-5 and in the assay with SF-295 was > 100 µM (inactive) in each case. In addition, the GI50 in the assay on SK-MEL-5, with SN12C, in the assay on SNB-19, with TK-10 and with UO-31 was > 100 µM (inactive) each time.
Turning to `O=c1[nH]c(=O)n([C@H]2C[C@@H](CO)[C@@H](O)C2)cc1I`, the GI50 with A498, in the assay on CAKI-1, with HCC 2998, in the assay with HL-60, in the assay on HOP-62 and in the assay with IGROV-1 was > 100 µM (inactive) each time. In addition, the GI50 in the assay with Malme-3M is > 100 µM (inactive); with NCI-H460 it was > 100 µM (inactive); in the assay with OVCAR-3, > 100 µM (inactive); in the assay with OVCAR-4 it was > 100 µM (inactive); with OVCAR-5, > 100 µM (inactive); in the assay with SF-295 it was > 10 µM (inactive). In addition, the GI50 in the assay with SK-MEL-5, with SN12C, in the assay on SNB-19, in the assay with TK-10 and in the assay on UO-31 was > 100 µM (inactive) each time.
With `N#C/C(=C/n1c(=S)[nH]c2ccc([N+](=O)[O-])cc21)C(N)=O`, the GI50 was > 100 µM (inactive) with CAKI-1; 9.33 µM (inactive) in the assay on HL-60; > 100 µM (inactive) in the assay with HOP-62; > 100 µM (inactive) in the assay with IGROV-1; > 100 µM (inactive) in the assay with Malme-3M; > 100 µM (inactive) in the assay on NCI-H460. Also, the GI50 with OVCAR-3, in the assay on OVCAR-4, with OVCAR-5, with SF-295, in the assay with SK-MEL-5 and with SN12C was > 100 µM (inactive) throughout. The GI50 in the assay with SNB-19, in the assay on SR, in the assay with TK-10 and in the assay with UO-31 was > 100 µM (inactive) each time.
Take `Cn1ccnc1CCc1ccc(Cl)cc1Cl`: the GI50 in the assay with A498 was > 100 µM (inactive); in the assay with CAKI-1, > 100 µM (inactive); in the assay with HCC 2998, > 100 µM (inactive); with HL-60 it was 68.1 µM (inactive); with HOP-62, > 100 µM (inactive); in the assay with IGROV-1, > 100 µM (inactive). Also, the GI50 with Malme-3M was > 100 µM (inactive); in the assay with NCI-H460, > 100 µM (inactive); with OVCAR-3, > 100 µM (inactive); in the assay on OVCAR-4, > 100 µM (inactive); with OVCAR-5, > 100 µM (inactive); with SF-295, 79.1 µM (inactive). Moreover, the GI50 in the assay on SN12C was > 100 µM (inactive); in the assay on SNB-19, > 100 µM (inactive); with TK-10, > 100 µM (inactive); in the assay with UO-31, 49.5 µM (inactive).
